Legend:
[1] = tested on: Potato leaf segments of varieties Prevalent, Producent, Karnico and Desiree; assay: Investigation of selection pressure: lethality of Imazamox concentrations on shoot regeneration from untransformed leaf segments; assay type: cell-based, Solanum tuberosum
Method: Potato leaf segments from in vitro propagated plants of four different potato varieties Prevalent, Producent, Karnico and Desiree were tested for natural tolerance on different concentrations of the imidazolinone herbicide Imazamox. It is important to choose a selection concentration at which the potato leaf tissue is viable long enough to regenerate shoots but have a high enough concentration to prevent the regeneration of untransformed shoots. Doses 0.1, 0.5, 1, 5, 10, 20, 30 and 50 μM Imazamox were tested.
Fully expended potato leaves are diagonally cut in 2 pieces and precultivated on MC-plates for 2 to 3 days at 23 to 24° C., see table 1.
The leaf tissues are transferred on MS300 medium for additional 2 days and cultivated under modest light at 23 to 24° C. simulating a co-cultivation step. Subsequently the leaf segments are moved to MS400 plates containing 400 mg/l Claforan. Claforan is added in order to suppress growth of Agrobacterium tumfaciens. Therefore the regeneration of shoots on different concentrations of Imazamox need to be monitored in presence of Claforan. Selection is taking place within 4 to 5 days when the explants are moved to MS400 medium supplemented with 400mg/l Claforan and Imazamox at above concentrations.
The explants are transferred to fresh selection medium every fortnight.
Leaf tissues were tested for the use of the AHAS resistance gene contained in SEQ ID No. 1 and for the selection of transgenic potato plant cells as described above. Four different potato cultivars Prevalent, Producent, Karnico and Desiree were cultivated on different concentrations of Imazamox, an imidazolinones type herbicides. It is essential to use the proper concentration for selection to yield an acceptable number of shoots per explant without high escape rate. The lethality of various Imazamox concentrations on regeneration was evaluated.
Lethal dose for regeneration was detected within 0.1 to 1 μM ranges of concentrations. Slight variation in lethality was detected between varieties. […]

[2] = tested on: in vitro potato leaf segments; assay: Effect of Imazamox on plant cell growth in tissue culture; assay type: cell-based, Solanum tuberosum
From the text: Leaf segments are the explants of choice used in Agrobacterium mediated potato transformation. Transgenic plants are regenerated via direct or indirect organogenesis under selective conditions. Cytokinines as growth hormones are mainly involved in provoking cell division and adventitious bud formation in in vitro potato leaf segments. […] This phenomenon classifies Imazamox as a unique selection agent that is combining both lethality for non-transgenic cells and improved growth for transgenic cells.

## COCc1cnc(C2=NC(C)(C(C)C)C(=O)N2)c(C(=O)O)c1 (racemic) [Imazamox, (RS)-2-(4-isopropyl-4-methyl-5-oxo-2-imidazolin-2-yl)-5-methoxymethylnicotinic acid]
[1]; 0.3 μM Imazamox
  lethality in regeneration: 80%
[1]; 0.5 μM Imazamox
  lethality in regeneration: 100%
[1]; 0.5 μM Imazamox included in the medium
  Regeneration: No regeneration
[2]; applied in low concentrations
  effect in tissue culture: cytokinine-like effect
[2]; at higher concentrations
  effect in tissue culture: acting as an herbicide

— US20060174366A1, “Use of ahas mutant genes as selection marker in potato transformation” (priority 2002, published 2006)
